Data published in patent publication EP2308847B1, “Substituted pyridines as inhibitors of dipeptidyl peptidase IV and their application for the treatment of diabetes and related diseases” (EMC microcollections GmbH, priority 2009, dated 2011).

Target: T1, human recombinant DPP-IV (Homo sapiens, UniProt P27487)
T1 construct: purchased Enzo Life Sciences AK499-0001
Experiment: biochemical
Description: The potency of the tested compounds is described upon the degree in inhibition of DPP-IV cleavage of the chromogenic substrate Gly-Pro-pNA (pNA is p-nitroaniline), expressed as IC50 values.
The assay was performed in 96-well plates at 37°C. First the enzyme was preincubated with the test compounds for 10 min. Therefore each well was filled with 0.18 mU of enzyme and variable concentrations of the inhibitor. Each well was filled up with Tris buffer (50 mM, pH 7.5) to a final volume of 200 µL. For dilutions of all test compounds DMSO was used.
The assay was repeated 3 times for each test compound. IC50 values were calculated after plotting the data for up to eight inhibitor concentrations by mean.
By measuring the rate of hydrolysis of Gly-Pro-pNA at four different concentrations of substrate and inhibitor the type of inhibition was determined. […] For each concentration of inhibitor the initial rates were used for Lineweaver-Burk plot.

T1 sequence (P27487 whole entry): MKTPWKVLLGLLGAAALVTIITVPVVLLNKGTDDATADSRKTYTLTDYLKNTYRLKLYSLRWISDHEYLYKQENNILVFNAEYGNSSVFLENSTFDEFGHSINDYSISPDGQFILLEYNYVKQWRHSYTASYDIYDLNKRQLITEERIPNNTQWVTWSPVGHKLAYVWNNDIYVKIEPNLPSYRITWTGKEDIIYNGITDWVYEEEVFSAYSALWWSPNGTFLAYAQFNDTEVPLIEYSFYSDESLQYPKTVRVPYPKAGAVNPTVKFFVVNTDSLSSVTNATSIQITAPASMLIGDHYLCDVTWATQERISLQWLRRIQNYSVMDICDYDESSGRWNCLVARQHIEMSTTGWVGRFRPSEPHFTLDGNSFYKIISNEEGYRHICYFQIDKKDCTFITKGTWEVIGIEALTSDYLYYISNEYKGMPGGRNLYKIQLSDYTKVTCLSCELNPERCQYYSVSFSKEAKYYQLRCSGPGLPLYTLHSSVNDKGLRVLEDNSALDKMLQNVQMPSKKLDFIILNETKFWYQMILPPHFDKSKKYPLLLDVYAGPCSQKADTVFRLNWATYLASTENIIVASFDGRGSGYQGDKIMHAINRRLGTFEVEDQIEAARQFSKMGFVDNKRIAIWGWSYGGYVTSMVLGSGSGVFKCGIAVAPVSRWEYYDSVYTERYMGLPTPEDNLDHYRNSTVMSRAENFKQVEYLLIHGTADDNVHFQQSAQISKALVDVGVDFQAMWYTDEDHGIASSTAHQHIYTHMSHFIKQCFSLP

Molecule Cc1nc(C(=O)O)cc(-c2ccc(F)cc2)c1CN [(XIII)] has an IC50 of less than 10 µM.

Cc1nc(C(=O)O)cc(-c2ccccc2F)c1CN [(XIV)] gave an IC50 of less than 10 µM.

Molecule Cc1nc(-c2ccc(Cl)cc2Cl)cc(C(=O)O)c1CN [regioisomer (XV), reference compound] has an IC50 of less than 10 µM.
